Earlier results, collected in patent US20210181185A1, “DENDRITIC CELL RECRUITMENT FROM BLOOD TO BRAIN IN NEURODEGENERATIVE DISEASE” (priority 2017, published 2021).

Conditions: free DiO

CCCCCCCCCCCCCCCCCCN1/C(=C\C=C\c2oc3ccccc3[n+]2CCCCCCCCCCCCCCCCCC)Oc2ccccc21.[O-][Cl+3]([O-])([O-])[O-] [DiO]
Clearance of free dye from blood: rapidly cleared from blood
